Laboratory results from patent US11242337B2, “Compounds useful for treating gastrointestinal tract disorders” (Ardelyx, Inc., priority 2017, dated 2022).
Read-outs that look alike come from different tables or passages of the source.

Experiments:
[1] = tested on: absorption of sodium from the intestinal lumen; assay: Inhibition of intestinal sodium absorption in mice; format: in vivo; conditions: CD-1 mice, 15 mg/kg oral gavage twice daily; for Fecal fluid content (Δ from vehicle): day 3, change from vehicle group mean; for response vs control in vivo at 15 mg/kg: Mus musculus, 72 h, day 3, normalized to dietary sodium intake
Experimental: Urinary and fecal sodium excretions were measured to assess the ability of selected example compounds to inhibit the absorption of sodium from the intestinal lumen. In addition, an assessment of the absence or presence of diarrhea in response to compound treatment was made. Approximately eight-week old, male, CD-1 mice were purchased from Envigo (Livermore, Calif.), were housed 6 per cage and acclimated for at least 48 hours before study initiation. Animals were fed Harlan Teklad Global TD.160470 rodent chow (Madison, Wis.), standard laboratory rodent chow Harlan Teklad Global 2018 with the addition of 0.4% inorganic phosphorous. […] To initiate the study, mice were weighed and then individually placed in metabolic cages. Following a 3-day acclimation period to the metabolic cage, a 24-hr baseline collection of urine and feces was performed. […] Each day, measurements of body weight. 24-hour food intake, water intake, urine volume and wet fecal weight were recorded, along with any observation of diarrhea. Fecal samples were dried using a lyophilizer for at least 3 days, following which dry weight was recorded and fecal fluid content was calculated based on the difference between the wet and dry stool weights. Fecal fluid content on day 3 of compound treatment was calculated as a change from the vehicle group mean. For urine samples, the volumes were determined gravimetrically. Feces and urine were analyzed for sodium content by microwave plasma-atomic emission spectroscopy or ion chromatography, respectively. Urine samples were analyzed on an ion chromatography system (Thermo Fisher ICS-3000 or ICS-5000+) coupled with conductivity detectors. Chromatographic separation of cations was performed using an IonPac CS12A (Thermo Fisher) 2×250 mm analytical column with an isocratic elution using […] methanesulfonic acid. Concentrations were interpolated from a a standard curve (prepared in 10 mM HCl) for sodium ion based on retention time and peak area. Fecal sample analysis by Microwave Plasma Atomic Emission Spectrometry (MP-AES). Dry fecal samples were ground into a fine powder on a homogenizer and the ground samples (400-600 mg aliquots weighed) were digested with nitric acid by microwave method (Mars 6). These digested samples were diluted with 1% Nitric acid and analyzed on Agilent 4100 MP-AES. Concentrations were calculated relative to a standard curve (prepared in 1% Nitric acid) for sodium based on the signal intensity. Sodium was detected at a wavelength of 588.995 nm. Twenty-four-hour urinary sodium excretion (ma/24-hours) was calculated by multiplying urinary sodium concentration by 24-hour urine volume. Twenty-four-hour fecal sodium excretion (mg/24-hours) was calculated by multiplying fecal sodium concentration by 24-hour dry fecal weight. The urinary and fecal sodium excretion on day 3 of compound treatment were normalized to dietary sodium intake and expressed as a percentage of the vehicle mean.

[2] = tested on: human ileum monolayer culture; assay: Sustained inhibition of apical acid secretion in human organoid monolayer cell cultures (ileum); format: cell-based; conditions: Homo sapiens, 48 h; 1 μM apical, dosed day 6, apical media pH day 8, vs DMSO
Experimental: (§1) Basal media (BM) consisted of advanced DMEM/F12 containing 10 mM HEPES Invitrogen, 15630-080), 1:100 Glutamax (Invitrogen, 35050-061), and 1:100 penicillin/streptomycin (Invitrogen, 15140-122). Supplemented basal media (SBM) contained 1:100 N2 (Invitrogen, 17502-048), 1:50 B27 (Invitrogen, 12587-010), 1 mM N-acetylcysteine (Sigma, A9165), and 10 nM [Leu15]-gastrin I (Sigma, G9145). Growth factors used included 50 ng per mL mouse EGF (Peprotech, 315-09), 100 ng per mL mouse noggin (Peprotech, 250-38), 500 ng per mL human R-spondin 1 (R&D, 4645-RS), 100 ng per mL mouse Wnt-3a (R&D, 1324-WN), 20 μM. Y-27632 (Tocris, 1254), 10 mM nicotinamide (Sigma, N0636), 500 nM A83-01 (Tocris, 2939), 10 μM SB202190 (Tocris, 1264). Transwells were 0.4 μm pore polyester membrane 24-well Transwell inserts (Corning). Cultures were incubated at 37° C. in 5% CO2.
(§2) Human ileum organoids were cultured in WENRNAS (Wnt, EGF, noggin, R-spondin1, Nicotinamide, A83-01, SB202190) and typically grown for 7-12 days before being used to plate monolayer cultures. On day 0, organoid cultures embedded in Matrigel were treated with TrypLE Express to break organoids into small pieces and/or single cells. The cells were resuspended to 0.5×10^6 cells/mL in SBM containing WENRAY (Wnt, EGF, noggin, R-spondin1, A83-01, Y-27632). Following this step, 200 μL of cell suspension was plated into the apical side of a 24-well Transwell (100,000 cells/well) and 600 μL of SBM with WENRAY was added to the basolateral side. Ileum cells were differentiated with ENRA (EGF, noggin, R-spondin 1, A83-01) on day 3. The color of apical compartment turns from pink or orange to yellow due to the increase in NHE3 expression after differentiation.
(§3) Each human ileum monolayer culture well was washed twice with fresh SBM on the apical side on day 6 before compound dosing. All compound stocks were 10 mM dissolved in DMSO. Each compound stock was individually mixed with fresh SBM to reach final compound concentration 1 μM and dosed only on the apical side of the monolayer (total volume 200 μl). DMSO at the equivalent concentration was used as the vehicle control. Duplicate wells were dosed for each compound. On day 8, apical media pH was measured by pH electrode, to determine the ability of example compounds to produce sustained inhibition of NHE3 activity in a human monolayer culture system by preventing proton secretion into the apical compartment.

[3] = tested on: human duodenum monolayer culture; assay: Sustained inhibition of apical acid secretion in human organoid monolayer cell cultures (duodenum); format: cell-based; conditions: Homo sapiens
Experimental: as §1, §3
as §2, with “Human duodenum” for “Human ileum”, “side. Duodenum” for “side. Ileum”, “with ENA” for “with ENRA”, “noggin,” for “noggin, R-spondin 1,”

[4] = read-out: Fecal Na Excretion (% of vehicle)
[5] = read-out: Urinary Na Excretion (% of vehicle)

Compound | Fecal fluid content (Δ from vehicle) [1] | response vs control in vivo at 15 mg/kg [1, 4] [%] | response vs control in vivo at 15 mg/kg [1, 5] [%] | inhibition at 1 µM [2] [%] | inhibition at 1 µM [3] [%]
Cc1cc(O[C@H]2c3cc(Cl)cc(Cl)c3C[C@@H]2N(C)C)c(F)cc1S(=O)(=O)NCCOCCOCCNC(=O)NCCCCNC(=O)NCCOCCOCCNS(=O)(=O)c1cc(F)c(O[C@H]2c3cc(Cl)cc(Cl)c3C[C@@H]2N(C)C)cc1C [Example 88, 3-[2-(2-[2-[(4-[[(1S,2S)-4,6-Dichloro-2-(dimethylamino)-2,3-dihydro-1H-inden-1-yl]oxy]-5-fluoro-2-methylbenzene)sulfonamido]ethoxy]ethoxy)ethyl]-1-[4-([[2-(2-[2-[(4-[[(1S,2S)-4,6-dichloro-2-(dimethylamino)-2,3-dihydro-1H-inden-1-yl]oxy]-5-fluoro-2-methylbenzene)sulfonamido]ethoxy]ethoxy)ethyl]carbamoyl]amino)butyl]urea] | B (5-10) | 150 to 200 | 50 to 70 |  | 
Cc1cc(S(=O)(=O)N[C@@H]2CCN(CCOCCNC(=O)NCCCCNC(=O)NCCOCCN3CC[C@@H](NS(=O)(=O)c4ccc(O[C@H]5c6cc(Cl)cc(Cl)c6C[C@@H]5N(C)C)c(C)c4)C3)C2)ccc1O[C@H]1c2cc(Cl)cc(Cl)c2C[C@@H]1N(C)C [Example 53, 3-(2-[2-[(3R)-3-[(4-[[(1S,2S)-4,6-Dichloro-2-(dimethylamino)-2,3-dihydro-1H-inden-1-yl]oxy]-3-methylbenzene)sulfonamido]pyrrolidin-1 yl]ethoxy]ethyl)-1-(4-[[(2-[2-[(3R)-3-[(4-[[(1S,2S)-4,6-dichloro-2-(dimethylamino)-2,3-dihydro-1H-inden-1-yl]oxy]-3-methylbenzene)sulfonamido]pyrrolidin-1-yl]ethoxy]ethyl)carbamoyl]amino]butyl)urea] | B (5-10) | < 150 | > 70 |  | 
N#Cc1cc(Cl)cc2c1C[C@H](N1CCNCC1)[C@H]2Oc1ccc(S(=O)(=O)N[C@@H]2CCN(CCOCCNC(=O)NCCCCNC(=O)NCCOCCN3CC[C@@H](NS(=O)(=O)c4ccc(O[C@H]5c6cc(Cl)cc(C#N)c6C[C@@H]5N5CCNCC5)c(F)c4)C3)C2)cc1F [Example 109, 4-([(1S,2S)-6-Chloro-4-cyano-2-(piperazin-1-yl)-2,3-dihydro-1H-inden-1-yl]oxy)-N—[(R)-1-(20-[(R)-3-[(4-([(1S,2S)-6-chloro-4-cyano-2-(piperazin-1-yl)-2,3-dihydro-1H-inden-1-yl]oxy)-3-fluorophenyl)sulfonamide)pyrrolidin-1-yl]-7,14-dioxo-3,18-dioxa-6,8,13,15-tetraazaicosyl)pyrrolidin-3-yl]-3-fluorobenzenesulfonamide; tetra(trifluoroacetate)] |  |  |  | > 70 | > 70
N#Cc1cc(Cl)cc2c1C[C@H](N1CCNCC1)[C@H]2Oc1ccc(S(=O)(=O)N[C@H]2CCN(CCOCCNC(=O)NCCCCNC(=O)NCCOCCN3CC[C@H](NS(=O)(=O)c4ccc(O[C@H]5c6cc(Cl)cc(C#N)c6C[C@@H]5N5CCNCC5)c(F)c4)C3)C2)cc1F [Example 110, 4-([(1S,2S)-6-Chloro-4-cyano-2-(piperazin-1-yl)-2,3-dihydro-1H-inden-1-yl]oxy)-N—[(S)-1-(20-[(S)-3-[(4-([(1S,2S)-6-chloro-4-cyano-2-(piperazin-1-yl)-2,3-dihydro-1H-inden-1-yl]oxy)-3-fluorophenyl)sulfonamide)pyrrolidin-1-yl]-7,14-dioxo-3,18-dioxa-6,8,13,15-tetraazaicosyl)pyrrolidin-3-yl]-3-fluorobenzenesulfonamide; tetra(trifluoroacetate)] |  |  |  | > 70 | > 70
N#Cc1cc(Cl)cc2c1C[C@H](N1CCNCC1)[C@H]2Oc1ccc(S(=O)(=O)NC2CCN(CCOCCNC(=O)NCCCCNC(=O)NCCOCCN3CCC(NS(=O)(=O)c4ccc(O[C@H]5c6cc(Cl)cc(C#N)c6C[C@@H]5N5CCNCC5)cc4)CC3)CC2)cc1 [Example 123, 4-([(1S,2S)-6-Chloro-4-cyano-2-(piperazin-1-yl)-2,3-dihydro-1H-inden-1-yl]oxy)-N-[1-(20-[4-([4-([(1S,2S)-6-chloro-4-cyano-2-(piperazin-1-yl)-2,3-dihydro-1H-inden-1-yl]oxy)phenyl]sulfonamide]piperidin-1-yl)-7,14-dioxo-3,18-dioxa-6,8,13,15-tetraazaicosyl]piperidin-4-yl)benzenesulfonamide] |  |  |  | > 70 | > 70
Cc1cc(Cl)cc2c1C[C@H](N1CCC[C@@H](N(C)C)C1)[C@H]2Oc1ccc(S(=O)(=O)NCCOCCOCCNC(=O)NCCCCNC(=O)NCCOCCOCCNS(=O)(=O)c2ccc(O[C@H]3c4cc(Cl)cc(C)c4C[C@@H]3N3CCC[C@@H](N(C)C)C3)c(F)c2)cc1F [Example 30, 3-[2-(2-[2-[(4-[[(1S,2S)-6-Chloro-2-[(3R)-3-(dimethylamino)piperidin-1-yl]-4-methyl-2,3-dihydro-1H-inden-1-yl]oxy]-3-fluorobenzene)sulfonamido]ethoxy]ethoxy)ethyl]-1-[4-([[2-(2-[2-[(4-[[(1S,2S)-6-chloro-2-[(3R)-3-(dimethylamino)piperidin-1-yl]-4-methyl-2,3-dihydro-1H-inden-1-yl]oxy]-3-fluorobenzene)sulfonamido]ethoxy]ethoxy)ethyl]carbamoyl]amino)butyl]urea; bis(trifluoroacetic acid)] | C (>10) | > 200 | 50 to 70 |  | 
